Holding throughout (type): cell-based
The target in one experiment is human GcgR (Homo sapiens, UniProt P47871). The experiment can be described thus: Functional cAMP activity in the presence of 1% HSA. To be noted: read-out: cAMP Rel EC50, hGcgR.
Experiment [1] has as its target T1, hGLP-1R (Homo sapiens, UniProt P43220). The experiment can be described thus: Functional cAMP activation in the presence of 0.1% casein (no HSA). To be noted: read-out: Relative cAMP EC50, hGLP-1R.
The target of experiment [2] is T1, hGLP-1R. Description: Functional cAMP activity in the presence of 1% HSA. To be noted: read-out: cAMP Rel EC50, hGLP-1R.
In the next experiment the target is hGcgR (Homo sapiens, UniProt P47871). The experiment can be described thus: Functional cAMP activation in the presence of 0.1% casein (no HSA). To be noted: read-out: Relative cAMP EC50, hGcgR.
The target of experiment [3] is T2, hGIPR (Homo sapiens, UniProt P48546).
T2 sequence (P48546 22-466): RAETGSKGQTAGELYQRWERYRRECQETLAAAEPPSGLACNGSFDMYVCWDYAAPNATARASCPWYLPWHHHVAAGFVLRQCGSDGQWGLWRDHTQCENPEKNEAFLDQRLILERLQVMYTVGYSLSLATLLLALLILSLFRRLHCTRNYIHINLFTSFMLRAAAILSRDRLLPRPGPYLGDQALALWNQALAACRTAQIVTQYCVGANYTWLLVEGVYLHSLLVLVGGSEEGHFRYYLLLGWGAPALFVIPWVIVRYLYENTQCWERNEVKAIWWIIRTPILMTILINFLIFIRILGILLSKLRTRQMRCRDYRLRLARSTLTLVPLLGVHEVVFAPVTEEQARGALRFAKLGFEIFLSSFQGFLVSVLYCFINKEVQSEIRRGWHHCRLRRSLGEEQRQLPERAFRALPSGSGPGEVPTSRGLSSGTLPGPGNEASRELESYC
Description: Functional cAMP activity in the presence of 1% HSA. The following applies: read-out: cAMP Rel EC50, hGIPR.

Experiment [4] has as its target T2, hGIPR. The experiment can be described thus: Functional cAMP activation in the presence of 0.1% casein (no HSA). To be noted: read-out: Relative cAMP EC50, hGIPR.
Where [5] appears, read: in the presence of 0.1% casein (no HSA), geometric mean.

These results are taken from US20240270821A1, “GIP/GLP1/GCG TRI-RECEPTOR AGONISTS AND USES THEREOF” (priority 2023, published 2024).

Where two headings read alike, the source gives them in different places. Starred links: 1 amine or outer side, 2 acyl side, 3 side chain; linkers in the order of their positions; H or OH if unused. Non-standard residues stand in square brackets, D forms with d. Residues, ends and D or L forms follow the SMILES beside them. Groups on a side chain read outwards from the residue. No end group written: not given here. *: point of attachment. C20 diacid = O=C(O)CCCCCCCCCCCCCCCCCCC(=O)*; C18 diacid = O=C(O)CCCCCCCCCCCCCCCCC(=O)*; αMePhe(2-F) = C[C@](N)(Cc1ccccc1F)C(=O)O; γGlu = O=C(O)[C@H](CCC(=O)[*:2])N[*:1]; αMe4Pal = C[C@](N)(Cc1ccncc1)C(=O)O; αMeY = C[C@](N)(Cc1ccc(O)cc1)C(=O)O; 4Pal = N[C@@H](Cc1ccncc1)C(=O)O; αMeL = CC(C)C[C@](C)(N)C(=O)O; αMeS = C[C@](N)(CO)C(=O)O; Orn = NCCC[C@H](N)C(=O)O; Dab = NCC[C@H](N)C(=O)O; AEEA = NCCOCCOCC(=O)O; Aib = CC(C)(N)C(=O)O

The EC50 is the concentration needed to bring the measured effect to its halfway point.
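For Relative cAMP EC50, hGIPR in this document: intracellular cAMP rise after 30 min at 37 °C read by HTRF against a standard curve, scaled between buffer alone (0%) and top control ligand concentration (100%), four-parameter fit.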
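For Relative cAMP EC50, hGLP-1R in this document: intracellular cAMP rise after 30 min at 37 °C read by HTRF, normalized between buffer only (0%) and maximal control ligand (100%), four-parameter variable-slope fit.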
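For Relative cAMP EC50, hGcgR in this document: intracellular cAMP rise after 30 min at 37 °C, read by HTRF against a cAMP standard curve, scaled from buffer only (0%) to maximal control ligand response (100%).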

T1 sequence (P43220 24-463): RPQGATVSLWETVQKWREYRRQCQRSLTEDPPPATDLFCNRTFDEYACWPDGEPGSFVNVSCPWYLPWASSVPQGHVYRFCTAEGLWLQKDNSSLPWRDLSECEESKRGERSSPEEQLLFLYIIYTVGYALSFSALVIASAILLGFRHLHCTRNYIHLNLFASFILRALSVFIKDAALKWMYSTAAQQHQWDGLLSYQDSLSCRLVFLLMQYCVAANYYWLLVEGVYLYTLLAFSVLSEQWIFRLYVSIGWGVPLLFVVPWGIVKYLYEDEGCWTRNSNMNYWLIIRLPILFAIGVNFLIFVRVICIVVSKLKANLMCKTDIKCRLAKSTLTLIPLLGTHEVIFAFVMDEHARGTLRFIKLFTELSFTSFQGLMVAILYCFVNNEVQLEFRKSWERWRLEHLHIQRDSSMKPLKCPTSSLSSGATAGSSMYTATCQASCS
Sequence of hGcgR (P47871 26-477): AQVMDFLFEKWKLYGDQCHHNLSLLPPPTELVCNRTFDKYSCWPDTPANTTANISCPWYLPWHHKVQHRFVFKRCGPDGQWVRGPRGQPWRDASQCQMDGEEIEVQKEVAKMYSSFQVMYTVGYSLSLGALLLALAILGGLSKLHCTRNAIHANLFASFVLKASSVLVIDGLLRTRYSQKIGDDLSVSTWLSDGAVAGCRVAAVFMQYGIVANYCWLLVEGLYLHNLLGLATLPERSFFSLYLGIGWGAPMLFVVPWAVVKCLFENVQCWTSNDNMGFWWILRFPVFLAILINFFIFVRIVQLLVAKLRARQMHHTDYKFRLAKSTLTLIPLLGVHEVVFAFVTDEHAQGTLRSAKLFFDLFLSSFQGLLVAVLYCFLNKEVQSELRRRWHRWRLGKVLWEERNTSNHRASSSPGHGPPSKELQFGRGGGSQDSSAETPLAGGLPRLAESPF
Sequence of human GcgR (P47871 26-477): as above

Regarding “H-Y[Aib]QGT[αMePhe(2-F)]TSDYSKLLDKIAQK([AEEA-γGlu-C20 diacid])AFIEYLIEGGPSSGAPPPSGE-NH2 [Example 356]”, the EC50 is 2680 nM at human GcgR; 0.599 nM at hGLP-1R [1] (setting [5]); 206 nM on hGLP-1R [2]; 4.76 nM at hGcgR (setting [5]); 19.2 nM at hGIPR [3]; 0.0613 nM on hGIPR [4] (setting [5]).
“H-Y[Aib]QGTFTSDFS[Dab][αMeL]LDKK([AEEA-γGlu-C18 diacid])AQ[Aib]AFIEYLLE[Aib]GPSSGAPPPSGS-NH2 [Example 133]”: the EC50 on human GcgR was found to be 642 nM; at hGLP-1R [1] (setting [5]), 3.6 nM; on hGLP-1R [2], 1180 nM; on hGcgR (setting [5]), 1.64 nM; at hGIPR [3], 23.1 nM; on hGIPR [4] (setting [5]) it was 0.15 nM.
In the case of “Y[Aib]QGT[αMePhe(2-F)]TSD[4Pal][αMeS]I[αMeL]LD[Orn]K([AEEA-γGlu-C18 diacid])AQ[αMe4Pal]EFI[dE][αMeY]LIEGGPPS[Aib]EPPPEGE-NH2 [Example 1190]”, the EC50 on human GcgR stood at 192 nM; at hGLP-1R [1] (setting [5]) it was 0.765 nM; at hGLP-1R [2], 77.4 nM; on hGcgR (setting [5]), 1.68 nM; on hGIPR [3] it was 0.954 nM; at hGIPR [4] (setting [5]) it was 0.0109 nM.
On to “H-Y[Aib]QGTFTSD[4Pal]SQ[αMeL]LD[Orn]K([γGlu-γGlu-C18 diacid])AQ[αMe4Pal]AFIEYLIAGGPSSGEPPPSGSE-NH2 [Example 1008]”, for which the EC50 came to 1010 nM on human GcgR; 1.09 nM on hGLP-1R [1] (setting [5]); 126 nM on hGLP-1R [2]; 7.47 nM at hGcgR (setting [5]); 15.2 nM on hGIPR [3]; 0.14 nM on hGIPR [4] (setting [5]).
“H-Y[Aib]QGT[αMePhe(2-F)]TSD[4Pal]SI[αMeL]LD[Orn]K([AEEA-γGlu-C18 diacid])AQ[αMe4Pal]EFI[dE][αMeY]LQEGGPSSGEPPPSGS-NH2 [Example 648]”: the EC50 came to 1170 nM at human GcgR; 1.76 nM on hGLP-1R [1]; 86.5 nM on hGLP-1R [2]; 20.3 nM at hGcgR; 1.4 nM at hGIPR [3]; 0.0392 nM at hGIPR [4].
Turning to “H-Y[Aib]QGT[αMePhe(2-F)]TSD[4Pal]SI[αMeL]LD[Orn]K([AEEA-γGlu-C18 diacid])AQ[αMe4Pal][Orn]FI[dE][αMeY]LIEGGPSSGDPPPETE-NH2 [Example 730]”, the EC50 stood at 216 nM on human GcgR; 0.248 nM on hGLP-1R [1]; 33 nM at hGLP-1R [2]; 2.46 nM at hGcgR; 1.29 nM at hGIPR [3]; 0.0122 nM at hGIPR [4].
Turning to “H-Y[Aib]QGTFTSDFS[Orn][αMeL]LDKK([AEEA-γGlu-C18 diacid])AQ[Aib]AFIEYLLE[Aib]GHSSGAPPPSGE-NH2 [Example 247]”, the concentration for a half-maximal effect (EC50) came out at 443 nM on human GcgR; 2.8 nM at hGLP-1R [1] (setting [5]); 291 nM on hGLP-1R [2]; 1.76 nM at hGcgR (setting [5]); 12.9 nM at hGIPR [3]; 0.0794 nM at hGIPR [4] (setting [5]).
On to “H-Y[Aib]QGTFTSD[4Pal]S[Orn][αMeL]LDKK([γGlu-γGlu-C18 diacid])AQ[αMe4Pal]AFIE[αMeY]LIEGGPSSGAPPPSGSEE-NH2 [Example 967]”, for which the EC50 at human GcgR worked out at 508 nM; on hGLP-1R [1] (setting [5]), 1.75 nM; at hGLP-1R [2] it was 345 nM; on hGcgR (setting [5]), 1.94 nM; on hGIPR [3] it was 39.5 nM; at hGIPR [4] (setting [5]), 0.205 nM.
Turning to `CC[C@H](C)[C@H](NC(=O)[C@H](CCCN)NC(=O)[C@H](CC(=O)O)NC(=O)[C@H](CC(C)C)NC(=O)[C@H](CC(C)C)NC(=O)[C@@H](NC(=O)[C@H](CO)NC(=O)[C@H](Cc1ccncc1)NC(=O)[C@H](CC(=O)O)NC(=O)[C@H](CO)NC(=O)[C@@H](NC(=O)[C@](C)(Cc1ccccc1F)NC(=O)[C@@H](NC(=O)CNC(=O)[C@H](CCC(N)=O)NC(=O)C(C)(C)NC(=O)[C@@H](N)Cc1ccc(O)cc1)[C@@H](C)O)[C@@H](C)O)[C@@H](C)CC)C(=O)N[C@@H](C)C(=O)N[C@@H](CCC(N)=O)C(=O)NC(C)(C)C(=O)N[C@@H](C)C(=O)N[C@@H](Cc1ccccc1)C(=O)N[C@H](C(=O)N[C@@H](CCCCNC(=O)COCCOCCNC(=O)CC[C@H](NC(=O)CCCCCCCCCCCCCCCCC(=O)O)C(=O)O)C(=O)N[C@@H](Cc1ccc(O)cc1)C(=O)N[C@@H](CC(C)C)C(=O)N[C@@H](CCC(=O)O)C(=O)N[C@@H](CCC(=O)O)C(=O)NCC(=O)NCC(=O)N1CCC[C@H]1C(=O)N[C@@H](CO)C(=O)N[C@@H](CO)C(=O)NCC(=O)N[C@@H](C)C(=O)N1CCC[C@H]1C(=O)N1CCC[C@H]1C(=O)N1CCC[C@H]1C(=O)N[C@@H](CO)C(N)=O)[C@@H](C)CC` [Example 454] (H-Y[Aib]QGT[αMePhe(2-F)]TSD[4Pal]SILLD[Orn]IAQ[Aib]AFIK([AEEA-γGlu-C18 diacid])YLEEGGPSSGAPPPS-NH2), the EC50 at human GcgR was 1280 nM; on hGLP-1R [1], 0.821 nM; on hGLP-1R [2] it was 135 nM; on hGcgR, 9.11 nM; at hGIPR [3] it was 4.31 nM; at hGIPR [4], 0.0154 nM.
Consider “Y[Aib]QGTFTSDYSI[αMeL]LDKQAAK([AEEA-AEEA-γGlu-C20 diacid])QFIEYLIA[Aib]GPSSGEPPPSEG-NH2 [Example 349]”, for which the EC50 amounted to 2280 nM at human GcgR; 0.555 nM at hGLP-1R [1] (setting [5]); 218 nM at hGLP-1R [2]; 5.12 nM at hGcgR (setting [5]); 52.6 nM at hGIPR [3]; 0.152 nM on hGIPR [4] (setting [5]).
In the case of `CC[C@H](C)[C@H](NC(=O)[C@H](Cc1ccccc1)NC(=O)[C@H](C)NC(=O)C(C)(C)NC(=O)[C@H](CCC(N)=O)NC(=O)[C@H](C)NC(=O)[C@H](CCCCNC(=O)COCCOCCNC(=O)COCCOCCNC(=O)CC[C@H](NC(=O)CCCCCCCCCCCCCCCCCCC(=O)O)C(=O)O)NC(=O)[C@H](CCCCN)NC(=O)[C@H](CC(=O)O)NC(=O)[C@H](CC(C)C)NC(=O)[C@H](CC(C)C)NC(=O)[C@@H](NC(=O)[C@H](CO)NC(=O)[C@H](Cc1ccc(O)cc1)NC(=O)[C@H](CC(=O)O)NC(=O)[C@H](CO)NC(=O)[C@@H](NC(=O)[C@](C)(Cc1ccccc1F)NC(=O)[C@@H](NC(=O)CNC(=O)[C@H](CCC(N)=O)NC(=O)C(C)(C)NC(=O)[C@@H](N)Cc1ccc(O)cc1)[C@@H](C)O)[C@@H](C)O)[C@@H](C)CC)C(=O)N[C@@H](CCC(=O)O)C(=O)N[C@@H](Cc1ccc(O)cc1)C(=O)N[C@@H](CC(C)C)C(=O)N[C@@H](CC(C)C)C(=O)N[C@@H](CCC(=O)O)C(=O)NCC(=O)NCC(=O)N1CCC[C@H]1C(=O)N[C@@H](CO)C(=O)N[C@@H](CO)C(=O)NCC(=O)N[C@@H](C)C(=O)N1CCC[C@H]1C(=O)N1CCC[C@H]1C(=O)N1CCC[C@H]1C(=O)N[C@@H](CCC(=O)O)C(N)=O` [Example 386] (H-Y[Aib]QGT[αMePhe(2-F)]TSDYSILLDKK([AEEA-AEEA-γGlu-C20 diacid])AQ[Aib]AFIEYLLEGGPSSGAPPPE-NH2), the EC50 came out at 734 nM at human GcgR; 0.278 nM at hGLP-1R [1] (setting [5]); 98.6 nM at hGLP-1R [2]; 1.7 nM at hGcgR (setting [5]); 5.62 nM on hGIPR [3]; 0.0156 nM at hGIPR [4] (setting [5]).
On to “H-Y[Aib]QGTFTSD[4Pal]S[Orn][αMeL]LD[Orn]K([γGlu-γGlu-C18 diacid])AQ[αMe4Pal]QFIEYLIAGGPSSGAPPPSGSEE-NH2 [Example 1000]”, for which the EC50 came to 501 nM at human GcgR; 3.55 nM at hGLP-1R [1] (setting [5]); 279 nM at hGLP-1R [2]; 4.62 nM at hGcgR (setting [5]); 15.5 nM at hGIPR [3]; 0.176 nM at hGIPR [4] (setting [5]).
“H-Y[Aib]QGTFTSD[4Pal]SR[αMeL]LDKK([γGlu-γGlu-C18 diacid])AQ[αMe4Pal]AFIEYLIAGGPSSGAPPPSGSEE-NH2 [Example 962]”: the concentration for a half-maximal effect (EC50) at human GcgR was found to be 485 nM; on hGLP-1R [1] (setting [5]), 1.36 nM; at hGLP-1R [2] it was 132 nM; on hGcgR (setting [5]), 3.13 nM; at hGIPR [3] it was 9.71 nM; at hGIPR [4] (setting [5]), 0.0972 nM.
As for “H-Y[Aib]QGTFTSDFS[Orn][αMeL]LDKK([AEEA-γGlu-C18 diacid])AQ[Aib]AFIEYLLEGGESSGAPPPSGS-NH2 [Example 145]”, the EC50 on human GcgR was 693 nM; on hGLP-1R [1] (setting [5]), 4.26 nM; at hGLP-1R [2], 1480 nM; at hGcgR (setting [5]) it was 3.14 nM; at hGIPR [3], 108 nM; on hGIPR [4] (setting [5]), 0.539 nM.
